Test results published in patent US11129867B2, “Method of treating cancer cells” (priority 2017, dated 2021).
Where a SMILES comes first, the peptide text is derived from it. The star is where a group is joined. X1 = CN(C)c1ccc2c(-c3ccc(C(=O)*)cc3C(=O)[O-])c3ccc(=[N+](C)C)cc-3oc2c1

Legend:
[1] = system: H2170; assay: WST-8 cell viability assay, H2170; assay type: cell-based; details: H2170 (lung cancer), different concentrations, 48 hours, FIG. 5
Method: (§1) Human oral squamous cell carcinoma (OSCC) cell lines, Ca922, OSC20, OECM-1, OC3, CGHNC9, HSC3, plus A549, MDA-MB-231, MCF7, Huh7, HeLa-Kyoto, Detroit 562, H520, H2170, and 293T cells were used in this study. Ca922, CGHNC9, MDA-MB-231, MCF7, Huh7, HeLa-Kyoto, Detroit 562, and 293T cells were all cultured in high-glucose Dulbecco's Modified Eagle Medium (DMEM). OSC20 and HSC3 cells were cultured in Dulbecco's Modified of Eagle's Medium/Ham's F-12 50/50 Mix (1:1). OECM-1, A549, H520, and H2170 cells were grown in RPMI-1640 medium. All culture media were supplemented with 10% fetal bovine serum (FBS) and 1% penicillin-streptomycin. OC3 cells were cultured in 1:1 DMEM/KSFM (keratinocyte serum-free medium) with supplied supplement of Bovine pituitary extract (BPE) and epidermal growth factor (EGF) followed by instruction. All the cells in this study were maintained at 37° C. in humidified atmosphere containing 5% CO2.
(§2) WST-8 [2-(2-methoxy-4-nitrophenyl)-3-(4-nitrophenyl)-5-(2,4-disulfophenyl)-2H-tetrazolium, monosodium salt] cell viability assay
(§3) Cells were seeded into 96 well plate and incubated at 37° C. overnight. Endpoint measures of TMR-GBP or drugs were performed by water soluble tetrazolium salt (WST-8)-based colorimetric assay in triplicate which measures the metabolic conversion of WST-8 into formazan by mitochondrial dehydrogenases present in viable cells. The amount of formazan produced is proportional to the number of live cells and is expressed as cellular viability. When time was up, media were removed and supplemented with WST-8 cell viability reagent-contained cell culture medium (1:10) and incubated at 37° C. for 2 hours. Besides, three wells with WST-8-dissolved medium only (without cells) were reserved as a background control. Cell viability was measured at the absorbance of 450/655 nm wavelength by ELISA reader.

[2] = system: Huh7; assay: WST-8 cell viability assay, Huh7; assay type: cell-based; details: Huh7 (liver cancer), different concentrations, 48 hours, FIG. 3
Method: as §1, §2
(§4) Cells were seeded into 96 well plate and incubated at 37° C. overnight. […] The amount of formazan produced is proportional to the number of live cells and is expressed as cellular viability. […] Cell viability was measured at the absorbance of 450/655 nm wavelength by ELISA reader.

[3] = system: OECM-1; assay: Time-lapse live cell imaging, OECM-1; assay type: cell-based, human; details: OECM-1, unbound TMR-GBP removed, imaged at 15 minutes interval for 16 hours, FIG. 4
Method: Time-Lapse Live Cell Imaging
In order to monitor cell morphology and the stability of TMR-GBP, cells were incubated in 35 mm dish or 4 well dish at 37° C. overnight. Replaced the culture medium with CO2-independent medium with supplement of 10% fetal bovine serum (FBS) and 1% penicillin-streptomycin, cells were treated with reagent (TMR, GBP, TMR-GBP) for the time according to the experiment and subjected to time-lapse live cell imaging. Cells were maintained on the microscope stage incubator at 37° C. Multiple-positional time-lapse imaging was performed using an automated Leica DMI6000 inverted microscope equipped with an HCX PL FL 20λ/NA0.4 objective and Andor Luca R EMCCD camera. Images of cells were taken at different interval time and analyzed by MetaMorph software.

[4] = system: H520; assay: WST-8 cell viability assay, H520; assay type: cell-based; details: H520 (lung cancer), different concentrations, 48 hours, FIG. 5
Method: as §1, §2, §3

[5] = system: MCF7; assay: WST-8 cell viability assay, MCF7; assay type: cell-based; details: MCF7 (breast cancer), different concentrations, 48 hours, FIG. 3
Method: as §1, §2, §4

[6] = system: Poly (ADP-ribose) polymerase (PARP); assay: Western blotting of PARP cleavage; assay type: cell-based, human
Method: Protein expression of Poly (ADP-ribose) polymerase (PARP) were examined in Ca922 cells treated with 25 μM TMR-GBP for 6 hours.
(§5) Protein lysate of Ca922 cells treated with TMR-GBP 25 μM were blotted with antibodies against Caspase-3, Caspase-7, Caspase-9 and Poly (ADP-ribose) polymerase (PARP). Representative blots are shown.
(§6) Western Blotting Analysis
(§7) Cells were harvested by trypsion or scratch and lysed in RIPA buffer (50 mM Tris-HCl, pH 7.4, 150 mM NaCl, 0.1% SDS, 0.5% Sodium deoxycholate, 1% NP-40) supplemented with 1× protease inhibitor cocktail. Sample was incubated on ice for 30 minutes and scraped every 10 minutes. Centrifuge at 13,000 rpm at 4° C. for 15 minutes, then collect supernatant for analysis. Protein concentration was determined by Bradford assay. First, 5× Bradford assay dye reagent was diluted into […], and mixture with RIPA (as standard) or samples. Concentration was obtained by spectrophotometer measurement. Equal volume of 2× laemmli buffer containing β-ME was added into protein lysate for goal concentration. Protein samples were boiled at 100° C. for 15 minutes and resolved by 10% SDS-PAGE gel or 4%-15% gradient gel. […] Washing the membrane three times with 1×PBST for every 5 minutes, protein band was detected by modified ECL (ddH2O, […] Tris pH8.0, 200 μM p-coumaric acid, 1.25 mM luminal, 0.001% H2O2) with ImageQuant LAS 4000 digital imaging system.

[7] = system: Bax; assay: Western blotting of pro-apoptotic protein Bax; assay type: cell-based, human; details: Ca922, 25 μM, indicated time points, FIG. 6C
Method: Protein expression of pro-apoptotic protein Bax were examined in Ca922 cells treated with 25 μM TMR-GBP for indicated time points. The relative protein level was presented below the blot as ratios which was normalized to Bax value of control cells (0 hour).
as §6
as §7, with “gel. Then, transfer to PVDF membrane by 100V or 110V voltage for 1 hour.” for “gel.”

[8] = system: Caspase-7; assay: Western blotting of Caspase-7; assay type: cell-based, human; details: Ca922, 25 μM, FIG. 11B
Method: as §5, §6
as §7, with “gel. Then, transfer to PVDF membrane by 100V or 110V voltage for 1 hour.” for “gel.”

CN(C)c1ccc2c(-c3ccc(C(=O)N[C@@H](CC(N)=O)C(=O)N[C@@H](Cc4ccc(O)cc4)C(=O)N[C@@H](CCCNC(=N)N)C(=O)N[C@@H](Cc4c[nH]c5ccccc45)C(=O)N[C@@H](CCCNC(=N)N)C(=O)N[C@@H](CS)C(=O)N[C@@H](CCCCN)C(=O)N[C@@H](CC(N)=O)C(=O)N[C@@H](CCC(N)=O)C(=O)N[C@@H](CC(N)=O)C(=O)O)cc3C(=O)[O-])c3ccc(=[N+](C)C)cc-3oc2c1 [TMR-GBP] (X1-NYRWRCKNQN-OH; N-terminus and C-terminus assumed)
cytotoxicity (cell viability) [1]: could induce cytotoxicity
cell viability [2]: not markedly affected
cell death by time-lapse microscopy [3]: most cells die in 8 hours
cytotoxicity (cell viability) [4]: could induce cytotoxicity
cell viability [5]: not markedly affected
PARP cleavage ([6]; Ca922, 25 μM, 6 hours, FIG. 11A): induced PARP cleavage
PARP cleavage after calpain inhibitor ([6]; Ca922, calpain inhibitor pretreated 30 minutes before TMR-GBP, FIG. 11D): still induced PARP cleavage
protein expression of Bax [7]: increased
activation of caspase-7 [8]: did not activate
